Laboratory results published in PubChem BioAssay (NCI).
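Tested at 5 concentrations; 48 h exposure; 96-well plates; endpoints linearly interpolated, else capped at highest concentration. GI50: concentration for 50% inhibition of growth. TGI marks complete inhibition of growth.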

Tests used:
Experiment in all cases: DTP human tumour cell line panel, 48 h
K-562 leukemia = test system: K-562 leukemia
NCI/ADR-RES ovarian = test system: NCI/ADR-RES ovarian
PC-3 prostate = test system: PC-3 prostate
NCI-H226 lung = test system: NCI-H226 lung
CAKI-1 renal = test system: CAKI-1 renal
SF-295 CNS = test system: SF-295 CNS
SF-539 CNS = test system: SF-539 CNS
RPMI-8226 leukemia = test system: RPMI-8226 leukemia
SK-MEL-5 melanoma = test system: SK-MEL-5 melanoma
IGROV1 ovarian = test system: IGROV1 ovarian
NCI-H23 lung = test system: NCI-H23 lung
CCRF-CEM leukemia = test system: CCRF-CEM leukemia
SR leukemia = test system: SR leukemia
OVCAR-8 ovarian = test system: OVCAR-8 ovarian
SNB-75 CNS = test system: SNB-75 CNS
ACHN renal = test system: ACHN renal
NCI-H522 lung = test system: NCI-H522 lung
UO-31 renal = test system: UO-31 renal
MDA-MB-435 = test system: MDA-MB-435
SK-MEL-28 melanoma = test system: SK-MEL-28 melanoma
HCC-2998 colon = test system: HCC-2998 colon
A498 renal = test system: A498 renal
SW-620 colon = test system: SW-620 colon
OVCAR-3 ovarian = test system: OVCAR-3 ovarian
HS 578T breast = test system: HS 578T breast
OVCAR-4 ovarian = test system: OVCAR-4 ovarian
T-47D breast = test system: T-47D breast
SN12C renal = test system: SN12C renal
COLO 205 colon = test system: COLO 205 colon
SF-268 CNS = test system: SF-268 CNS
MDA-MB-231 breast = test system: MDA-MB-231 breast
HCT-116 colon = test system: HCT-116 colon
LOX IMVI melanoma = test system: LOX IMVI melanoma
OVCAR-5 ovarian = test system: OVCAR-5 ovarian
TK-10 renal = test system: TK-10 renal
U251 CNS = test system: U251 CNS
SK-OV-3 ovarian = test system: SK-OV-3 ovarian
HT29 colon = test system: HT29 colon
786-0 renal = test system: 786-0 renal
HCT-15 colon = test system: HCT-15 colon
EKVX NSCLC = test system: EKVX NSCLC
KM12 colon = test system: KM12 colon
NCI-H460 lung = test system: NCI-H460 lung
SK-MEL-2 melanoma = test system: SK-MEL-2 melanoma
SNB-19 CNS = test system: SNB-19 CNS
MOLT-4 leukemia = test system: MOLT-4 leukemia
M14 melanoma = test system: M14 melanoma
HOP-62 NSCLC = test system: HOP-62 NSCLC
HOP-92 NSCLC = test system: HOP-92 NSCLC
DU-145 prostate = test system: DU-145 prostate
UACC-257 melanoma = test system: UACC-257 melanoma
A549 NSCLC = test system: A549 NSCLC
UACC-62 melanoma = test system: UACC-62 melanoma
RXF 393 renal = test system: RXF 393 renal
MALME-3M melanoma = test system: MALME-3M melanoma
HL-60(TB) leukemia = test system: HL-60(TB) leukemia
MCF7 breast = test system: MCF7 breast

Work on `Cc1cc(-c2no[n+]([O-])c2-c2cc(C)sc2S(C)(=O)=O)c(S(C)(=O)=O)s1` yielded a TGI (K-562 leukemia) greater than 100 µM, a TGI (NCI/ADR-RES ovarian) greater than 100 µM and a TGI (PC-3 prostate) greater than 100 µM. For the same compound, the TGI (NCI-H226 lung) was greater than 100 µM, the TGI (CAKI-1 renal) was greater than 100 µM and the TGI (SF-295 CNS) was greater than 100 µM. It also gave a TGI (SF-539 CNS) greater than 100 µM, a TGI (RPMI-8226 leukemia) greater than 100 µM and a TGI (SK-MEL-5 melanoma) greater than 100 µM. It also gave a TGI (IGROV1 ovarian) greater than 100 µM, a TGI (NCI-H23 lung) greater than 100 µM and a TGI (CCRF-CEM leukemia) greater than 100 µM. For the same compound, the TGI (SR leukemia) was greater than 100 µM, the TGI (OVCAR-8 ovarian) was greater than 100 µM and the TGI (SNB-75 CNS) was greater than 100 µM. For the same compound, the TGI (ACHN renal) was greater than 100 µM, the TGI (NCI-H522 lung) was greater than 100 µM and the TGI (UO-31 renal) was greater than 100 µM. The TGI (MDA-MB-435) was greater than 100 µM, the TGI (SK-MEL-28 melanoma) was greater than 100 µM and the TGI (HCC-2998 colon) was greater than 100 µM. It also gave a TGI (A498 renal) greater than 100 µM, a TGI (SW-620 colon) greater than 100 µM and a TGI (OVCAR-3 ovarian) greater than 100 µM. For the same compound, the TGI (HS 578T breast) was greater than 100 µM, the TGI (OVCAR-4 ovarian) was greater than 100 µM and the TGI (T-47D breast) was greater than 100 µM. It also gave a TGI (SN12C renal) greater than 100 µM, a TGI (COLO 205 colon) greater than 100 µM and a TGI (SF-268 CNS) greater than 100 µM. It also gave a TGI (MDA-MB-231 breast) greater than 100 µM, a TGI (HCT-116 colon) greater than 100 µM and a TGI (LOX IMVI melanoma) greater than 100 µM. The TGI (OVCAR-5 ovarian) was greater than 100 µM, the TGI (TK-10 renal) was greater than 100 µM and the TGI (U251 CNS) was greater than 100 µM. The TGI (SK-OV-3 ovarian) was greater than 100 µM, the TGI (HT29 colon) was greater than 100 µM and the TGI (786-0 renal) was greater than 100 µM. For the same compound, the TGI (HCT-15 colon) was greater than 100 µM, the TGI (EKVX NSCLC) was greater than 100 µM and the TGI (KM12 colon) was greater than 100 µM. For the same compound, the TGI (NCI-H460 lung) was greater than 100 µM, the TGI (SK-MEL-2 melanoma) was greater than 100 µM and the TGI (SNB-19 CNS) was 75.1 µM. It also gave a TGI (MOLT-4 leukemia) greater than 100 µM, a TGI (M14 melanoma) greater than 100 µM and a TGI (HOP-62 NSCLC) greater than 100 µM. For the same compound, the TGI (HOP-92 NSCLC) was greater than 100 µM.
`CCCCCCCCCCCC[n+]1c(C)cc(N)c2ccccc21` gave a GI50 (NCI/ADR-RES ovarian) of 3.18 µM, a TGI (NCI/ADR-RES ovarian) greater than 100 µM and a GI50 (SK-MEL-5 melanoma) of 0.364 µM. The TGI (SK-MEL-5 melanoma) was 1.4 µM, the GI50 (DU-145 prostate) was 0.67 µM and the TGI (DU-145 prostate) was 1.97 µM. It also gave a GI50 (SK-MEL-28 melanoma) of 1.18 µM, a TGI (SK-MEL-28 melanoma) of 2.47 µM and a GI50 (OVCAR-4 ovarian) of 0.327 µM. For the same compound, the TGI (OVCAR-4 ovarian) was 1.6 µM, the GI50 (OVCAR-5 ovarian) was 1.57 µM and the TGI (OVCAR-5 ovarian) was 3.28 µM. The GI50 (SK-OV-3 ovarian) was 1.13 µM, the TGI (SK-OV-3 ovarian) was 2.36 µM and the GI50 (SK-MEL-2 melanoma) was 1.27 µM. It also gave a TGI (SK-MEL-2 melanoma) of 2.72 µM, a GI50 (UACC-257 melanoma) of 0.249 µM and a TGI (UACC-257 melanoma) of 0.915 µM. The GI50 (HOP-92 NSCLC) was 0.167 µM and the TGI (HOP-92 NSCLC) was 1.19 µM.
Compound `O=C(N=C1N(c2ccccc2)C(=O)C(=O)N1c1ccccc1)c1ccccc1` has a TGI (K-562 leukemia) greater than 100 µM, a TGI (NCI/ADR-RES ovarian) of 25.8 µM and a TGI (PC-3 prostate) of 50.6 µM. It also gave a TGI (NCI-H226 lung) of 29.2 µM, a TGI (CAKI-1 renal) of 31.4 µM and a TGI (SF-295 CNS) of 25.3 µM. It also gave a TGI (SF-539 CNS) of 26.6 µM, a TGI (RPMI-8226 leukemia) of 74.9 µM and a TGI (SK-MEL-5 melanoma) of 32 µM. It also gave a TGI (IGROV1 ovarian) of 23.5 µM, a TGI (NCI-H23 lung) of 33.6 µM and a TGI (CCRF-CEM leukemia) greater than 100 µM. For the same compound, the TGI (A549 NSCLC) was 20.2 µM, the TGI (SR leukemia) was 41.4 µM and the TGI (OVCAR-8 ovarian) was 29.6 µM. The TGI (UACC-62 melanoma) was 30.2 µM, the TGI (DU-145 prostate) was 43.5 µM and the TGI (SNB-75 CNS) was 25.1 µM. It also gave a TGI (ACHN renal) of 14.3 µM, a TGI (NCI-H522 lung) of 6.23 µM and a TGI (UO-31 renal) of 29 µM. For the same compound, the TGI (MDA-MB-435) was 99.2 µM, the TGI (RXF 393 renal) was 13.5 µM and the TGI (MALME-3M melanoma) was 38.4 µM. For the same compound, the TGI (SK-MEL-28 melanoma) was 38.1 µM, the TGI (HCC-2998 colon) was 23.3 µM and the TGI (A498 renal) was 39.9 µM. The TGI (SW-620 colon) was 28.4 µM, the TGI (HS 578T breast) was 27.2 µM and the TGI (OVCAR-4 ovarian) was 13.3 µM. The TGI (T-47D breast) was 56.5 µM, the TGI (HL-60(TB) leukemia) was greater than 100 µM and the TGI (SN12C renal) was 24.1 µM. For the same compound, the TGI (COLO 205 colon) was 30 µM, the TGI (SF-268 CNS) was 50.5 µM and the TGI (MDA-MB-231 breast) was 18.6 µM. It also gave a TGI (HCT-116 colon) of 14.4 µM, a TGI (LOX IMVI melanoma) of 13.6 µM and a TGI (OVCAR-5 ovarian) greater than 100 µM. It also gave a TGI (TK-10 renal) of 33.2 µM, a TGI (U251 CNS) of 24.4 µM and a TGI (SK-OV-3 ovarian) of 19.6 µM. The TGI (HT29 colon) was 40.9 µM, the TGI (786-0 renal) was 12.5 µM and the TGI (HCT-15 colon) was 22.4 µM. It also gave a TGI (EKVX NSCLC) of 32.1 µM, a TGI (KM12 colon) of 46.9 µM and a TGI (NCI-H460 lung) of 25.8 µM. It also gave a TGI (SK-MEL-2 melanoma) of 36.9 µM, a TGI (SNB-19 CNS) of 28.1 µM and a TGI (MOLT-4 leukemia) greater than 100 µM. It also gave a TGI (HOP-62 NSCLC) of 23.7 µM, a TGI (UACC-257 melanoma) greater than 100 µM and a TGI (HOP-92 NSCLC) of 20.8 µM.
With `Cc1ccc(S(=O)(=O)NC(=O)Nc2ccc(C(=O)O)c(O)c2)cc1` the TGI (K-562 leukemia) was greater than 100 µM, the TGI (NCI/ADR-RES ovarian) was greater than 100 µM and the TGI (PC-3 prostate) was greater than 100 µM. The TGI (NCI-H226 lung) was greater than 100 µM, the TGI (CAKI-1 renal) was greater than 100 µM and the TGI (SF-295 CNS) was greater than 100 µM. The TGI (SF-539 CNS) was greater than 100 µM, the TGI (RPMI-8226 leukemia) was greater than 100 µM and the TGI (SK-MEL-5 melanoma) was greater than 100 µM. It also gave a TGI (NCI-H23 lung) greater than 100 µM, a TGI (CCRF-CEM leukemia) greater than 100 µM and a TGI (A549 NSCLC) greater than 100 µM. It also gave a TGI (SR leukemia) greater than 100 µM, a TGI (OVCAR-8 ovarian) greater than 100 µM and a TGI (UACC-62 melanoma) greater than 100 µM. For the same compound, the TGI (DU-145 prostate) was greater than 100 µM, the TGI (SNB-75 CNS) was greater than 100 µM and the TGI (ACHN renal) was greater than 100 µM. For the same compound, the TGI (UO-31 renal) was greater than 100 µM, the TGI (MDA-MB-435) was greater than 100 µM and the TGI (RXF 393 renal) was greater than 100 µM. It also gave a TGI (MALME-3M melanoma) greater than 100 µM, a TGI (HCC-2998 colon) greater than 100 µM and a TGI (A498 renal) greater than 100 µM. It also gave a TGI (SW-620 colon) greater than 100 µM, a TGI (OVCAR-3 ovarian) greater than 100 µM and a TGI (HS 578T breast) greater than 100 µM. The TGI (OVCAR-4 ovarian) was greater than 100 µM, the TGI (HL-60(TB) leukemia) was greater than 100 µM and the TGI (COLO 205 colon) was greater than 100 µM. The TGI (SF-268 CNS) was greater than 100 µM, the TGI (MDA-MB-231 breast) was greater than 100 µM and the TGI (HCT-116 colon) was greater than 100 µM. The TGI (LOX IMVI melanoma) was greater than 100 µM, the TGI (OVCAR-5 ovarian) was greater than 100 µM and the TGI (TK-10 renal) was greater than 100 µM. For the same compound, the TGI (U251 CNS) was greater than 100 µM, the TGI (SK-OV-3 ovarian) was greater than 100 µM and the TGI (MCF7 breast) was greater than 100 µM. For the same compound, the TGI (HT29 colon) was greater than 100 µM, the TGI (786-0 renal) was greater than 100 µM and the TGI (HCT-15 colon) was greater than 100 µM. The TGI (EKVX NSCLC) was greater than 100 µM, the TGI (KM12 colon) was greater than 100 µM and the TGI (NCI-H460 lung) was greater than 100 µM. It also gave a TGI (SK-MEL-2 melanoma) greater than 100 µM, a TGI (SNB-19 CNS) greater than 100 µM and a TGI (MOLT-4 leukemia) greater than 100 µM. For the same compound, the TGI (M14 melanoma) was greater than 100 µM, the TGI (HOP-62 NSCLC) was greater than 100 µM and the TGI (HOP-92 NSCLC) was greater than 100 µM.
